# From paper PMC6738096 (British Journal of Cancer, 2019)
# Where two headings read alike, the source gives them in different places.
# Legend:
# ALK-positive tumours = test: Phase 1 trial: clinical activity, tumour response by RECIST 1.1; type: in vivo, human; settings: for Best overall response: Complete response / Best overall response: Progressive disease / Best overall response: Stable disease / Objective response: Complete response + partial response / Best overall response: Partial response: ALK-positive NSCLC, 40 mg every 8 hours; for Best overall response: Partial response: confirmed and unconfirmed
# Procedure: The overall tumour response in all patients with measurable disease was evaluated, using Response Evaluation Criteria in Solid Tumors, version 1.1,[16] completed at times of radiologic assessment at weeks 4 and 8 after dosing and every 8 weeks thereafter. For patients without measurable disease at study entry, radiologic assessment was done as per investigator discretion.
# While tumour response data were collected from 66 patients, here, we present response data only for patients with ALK-positive tumour samples (n = 22) receiving the RP2D (40 mg Q8h).
# [1] = Plasma exposure in mice of the Karpas-299 study
# [2] = Phase 1 trial: plasma pharmacokinetics of TSR-011 IR (LC-MS/MS, noncompartmental analysis); type: in vivo, human
# Procedure: To evaluate PK and establish the RP2D, blood samples were collected from all patients in the phase 1 dose-escalation trial at daily doses of 30–480 mg.
# Plasma samples were processed through a Biotage (Uppsala, Sweden) ISOLUTE SLE + 200 μL of a 96-well-supported liquid extraction plate. […] The validated range was 0.87–433.25 nmol/L. The assay interbatch precision, expressed as percent coefficients of variation, ranged from 6.6 to 11.7%, and the interbatch accuracy, expressed as percent bias, ranged from –4.7 to 0.5%.
# PK parameters were calculated using noncompartmental analysis (Phoenix WinNonlin version 7.0, Pharsight Corporation, Mountain View, CA, USA).
# [3] = Procedure: During the phase 1 trial, all patients were monitored by ECGs as part of safety evaluations. […] Cardiac function (QT, Bazett-corrected QT formula, Fridericia-corrected QT formula [QTcF], PR, QRS, RR and heart rate) was evaluated by a 12-lead ECG with triplicate readouts at scheduled time points, along with changes from baseline to each scheduled time point.
# All the ΔQTcF data with matching drug concentration values were used for the analysis.
# calcium channel = test: Functional patch-clamp test, calcium channel inhibition; type: cell-based
# CYP3A4 = CYP3A4 (Homo sapiens, UniProt P08684); test: biochemical
# CYP3A4, sequence (P08684 whole entry): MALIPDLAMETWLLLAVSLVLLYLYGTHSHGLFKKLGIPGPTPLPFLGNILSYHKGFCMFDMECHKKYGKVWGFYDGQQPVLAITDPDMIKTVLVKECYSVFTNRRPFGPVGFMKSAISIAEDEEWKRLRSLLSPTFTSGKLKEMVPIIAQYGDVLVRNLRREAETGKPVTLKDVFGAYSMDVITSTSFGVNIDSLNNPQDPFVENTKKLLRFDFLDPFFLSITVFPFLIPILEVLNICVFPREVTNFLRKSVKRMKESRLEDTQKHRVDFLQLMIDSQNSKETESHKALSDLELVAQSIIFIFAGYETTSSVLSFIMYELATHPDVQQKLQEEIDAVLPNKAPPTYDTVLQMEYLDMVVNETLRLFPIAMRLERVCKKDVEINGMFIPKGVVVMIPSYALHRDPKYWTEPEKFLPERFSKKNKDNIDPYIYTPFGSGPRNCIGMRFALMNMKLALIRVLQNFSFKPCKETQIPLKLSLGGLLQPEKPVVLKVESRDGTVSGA
# hERG [4] = biological target: T1, hERG (Homo sapiens, UniProt Q12809); test: hERG in vitro test, displacement of dofetilide binding
# T1 sequence (Q12809 whole entry): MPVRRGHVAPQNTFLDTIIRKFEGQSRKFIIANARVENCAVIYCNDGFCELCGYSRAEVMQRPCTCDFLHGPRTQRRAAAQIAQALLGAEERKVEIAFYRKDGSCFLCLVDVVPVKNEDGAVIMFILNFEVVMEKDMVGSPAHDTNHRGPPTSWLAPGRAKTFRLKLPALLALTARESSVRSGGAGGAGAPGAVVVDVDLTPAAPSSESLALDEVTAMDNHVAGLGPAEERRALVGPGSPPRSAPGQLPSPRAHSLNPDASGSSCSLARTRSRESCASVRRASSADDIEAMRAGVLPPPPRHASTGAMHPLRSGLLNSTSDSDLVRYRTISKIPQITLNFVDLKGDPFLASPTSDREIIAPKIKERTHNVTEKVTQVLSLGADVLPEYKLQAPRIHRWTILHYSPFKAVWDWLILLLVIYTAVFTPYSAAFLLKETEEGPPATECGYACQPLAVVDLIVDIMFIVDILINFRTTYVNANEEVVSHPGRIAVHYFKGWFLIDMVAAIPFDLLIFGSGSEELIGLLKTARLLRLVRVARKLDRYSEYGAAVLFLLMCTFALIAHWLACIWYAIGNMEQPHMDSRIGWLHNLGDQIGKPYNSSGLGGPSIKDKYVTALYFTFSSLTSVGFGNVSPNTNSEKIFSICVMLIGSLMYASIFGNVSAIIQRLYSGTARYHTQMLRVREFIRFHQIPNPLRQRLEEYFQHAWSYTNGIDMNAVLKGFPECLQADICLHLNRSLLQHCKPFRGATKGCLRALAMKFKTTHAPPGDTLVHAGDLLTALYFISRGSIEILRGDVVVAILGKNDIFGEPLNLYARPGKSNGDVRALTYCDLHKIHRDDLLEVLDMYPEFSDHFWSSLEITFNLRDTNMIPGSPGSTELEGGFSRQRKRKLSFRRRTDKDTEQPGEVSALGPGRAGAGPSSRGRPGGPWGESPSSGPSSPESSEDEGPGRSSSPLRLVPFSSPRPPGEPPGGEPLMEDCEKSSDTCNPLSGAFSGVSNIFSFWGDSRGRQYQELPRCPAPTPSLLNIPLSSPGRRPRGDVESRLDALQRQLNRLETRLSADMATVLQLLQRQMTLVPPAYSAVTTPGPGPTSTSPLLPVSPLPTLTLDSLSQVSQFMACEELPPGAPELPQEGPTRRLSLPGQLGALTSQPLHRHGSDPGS
# hERG [5] = biological target: T1, hERG; test: hERG channel functional assay; type: biochemical; settings: read-out: IC50, inhibition of the hERG channel, functional assay
# hNav1.5 = biological target: T2, hNav1.5 (Homo sapiens, UniProt Q14524); test: hNav1.5 expressed in HEK-293 cells; type: cell-based; settings: read-out: IC50 against hNav1.5
# T2 construct: expressed in transfected cells; host or cells: HEK-293
# T2 sequence (Q14524 whole entry): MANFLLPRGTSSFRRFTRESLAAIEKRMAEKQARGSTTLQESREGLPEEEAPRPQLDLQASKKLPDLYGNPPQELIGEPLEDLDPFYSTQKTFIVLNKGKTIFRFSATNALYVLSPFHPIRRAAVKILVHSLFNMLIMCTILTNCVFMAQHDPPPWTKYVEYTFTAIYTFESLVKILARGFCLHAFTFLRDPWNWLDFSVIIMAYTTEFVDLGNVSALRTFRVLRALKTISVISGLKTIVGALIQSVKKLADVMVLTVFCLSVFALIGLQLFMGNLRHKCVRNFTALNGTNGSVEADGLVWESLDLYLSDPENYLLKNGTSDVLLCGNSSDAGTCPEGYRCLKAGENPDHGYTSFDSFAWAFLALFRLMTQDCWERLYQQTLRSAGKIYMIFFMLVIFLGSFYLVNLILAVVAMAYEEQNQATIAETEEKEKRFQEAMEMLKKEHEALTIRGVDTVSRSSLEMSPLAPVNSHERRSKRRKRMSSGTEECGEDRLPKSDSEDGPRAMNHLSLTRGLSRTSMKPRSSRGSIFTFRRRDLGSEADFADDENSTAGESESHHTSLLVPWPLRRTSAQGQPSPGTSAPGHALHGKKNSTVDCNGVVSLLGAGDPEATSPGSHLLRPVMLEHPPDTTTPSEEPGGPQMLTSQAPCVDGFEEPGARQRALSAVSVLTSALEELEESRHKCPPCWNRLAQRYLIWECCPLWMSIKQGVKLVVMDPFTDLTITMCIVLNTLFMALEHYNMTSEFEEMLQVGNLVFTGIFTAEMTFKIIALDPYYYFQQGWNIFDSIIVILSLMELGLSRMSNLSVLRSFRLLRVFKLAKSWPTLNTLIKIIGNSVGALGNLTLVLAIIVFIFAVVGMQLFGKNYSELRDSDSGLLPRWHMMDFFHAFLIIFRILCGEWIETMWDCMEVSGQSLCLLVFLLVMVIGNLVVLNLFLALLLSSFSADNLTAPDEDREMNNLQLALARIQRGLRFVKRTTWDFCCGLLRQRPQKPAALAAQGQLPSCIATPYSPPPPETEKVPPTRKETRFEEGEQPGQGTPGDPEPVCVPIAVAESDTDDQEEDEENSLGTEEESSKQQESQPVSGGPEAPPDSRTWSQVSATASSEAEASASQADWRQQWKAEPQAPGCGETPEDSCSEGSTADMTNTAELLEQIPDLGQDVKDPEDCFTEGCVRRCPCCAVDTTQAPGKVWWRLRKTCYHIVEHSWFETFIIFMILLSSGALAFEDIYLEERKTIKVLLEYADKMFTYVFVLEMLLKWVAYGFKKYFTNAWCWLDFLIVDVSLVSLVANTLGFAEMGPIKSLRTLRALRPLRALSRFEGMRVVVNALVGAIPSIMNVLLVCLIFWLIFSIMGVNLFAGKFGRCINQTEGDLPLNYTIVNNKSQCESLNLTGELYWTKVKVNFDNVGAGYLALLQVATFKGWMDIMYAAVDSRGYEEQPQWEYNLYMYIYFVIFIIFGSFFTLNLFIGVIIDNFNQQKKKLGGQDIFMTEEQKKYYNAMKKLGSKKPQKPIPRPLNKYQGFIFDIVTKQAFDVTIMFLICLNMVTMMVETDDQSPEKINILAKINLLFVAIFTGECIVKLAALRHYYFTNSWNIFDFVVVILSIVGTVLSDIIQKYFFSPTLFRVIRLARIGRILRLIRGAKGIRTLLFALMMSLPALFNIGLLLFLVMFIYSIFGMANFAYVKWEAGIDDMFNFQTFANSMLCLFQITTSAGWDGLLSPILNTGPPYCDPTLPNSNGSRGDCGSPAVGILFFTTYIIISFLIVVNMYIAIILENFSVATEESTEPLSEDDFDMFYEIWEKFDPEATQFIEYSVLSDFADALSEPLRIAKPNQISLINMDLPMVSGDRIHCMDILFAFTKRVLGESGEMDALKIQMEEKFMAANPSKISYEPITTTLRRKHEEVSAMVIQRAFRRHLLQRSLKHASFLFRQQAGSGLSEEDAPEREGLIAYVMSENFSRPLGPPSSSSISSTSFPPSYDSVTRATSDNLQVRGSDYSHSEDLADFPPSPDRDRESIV
# CYP2D6 = CYP2D6 (Homo sapiens, UniProt P10635); test: biochemical
# CYP2D6, sequence (P10635 whole entry): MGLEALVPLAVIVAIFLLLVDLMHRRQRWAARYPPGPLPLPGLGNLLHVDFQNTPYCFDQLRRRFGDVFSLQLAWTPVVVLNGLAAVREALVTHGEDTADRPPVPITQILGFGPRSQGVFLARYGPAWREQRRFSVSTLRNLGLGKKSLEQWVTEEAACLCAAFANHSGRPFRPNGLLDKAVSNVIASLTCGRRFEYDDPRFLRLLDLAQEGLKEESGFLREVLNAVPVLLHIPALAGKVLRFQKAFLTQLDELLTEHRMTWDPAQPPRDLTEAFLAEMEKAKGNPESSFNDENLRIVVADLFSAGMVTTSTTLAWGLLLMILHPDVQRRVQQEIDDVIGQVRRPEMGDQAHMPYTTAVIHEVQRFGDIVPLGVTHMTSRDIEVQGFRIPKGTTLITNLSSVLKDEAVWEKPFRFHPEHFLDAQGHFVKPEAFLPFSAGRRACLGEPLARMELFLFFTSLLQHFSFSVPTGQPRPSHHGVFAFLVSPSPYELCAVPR
# [6] = Telemetered dog cardiovascular study; type: in vivo
# Procedure: Potential in vivo effects on the respiratory, central nervous and cardiovascular systems were evaluated in oral dose studies in rats and dogs.
# [7] = Prior ALK inhibitor-treated (n = 8)
# [8] = ALK-positive patients (n = 22), 40 mg Q8h
# [9] = previously treated with an ALK inhibitor, RP2D
# [10] = single dose, over the 16-fold increase in dose (30–480 mg)
# [11] = steady state, over the sixfold increase in dose (80–480 mg)
structure (smiles),measurement,setting,value
CC(C)NC(=O)[C@H]1CC[C@@H](n2c(NC(=O)c3ccc(F)cc3)nc3ccc(CN4CCC(C(C)(C)O)CC4)cc32)CC1 [TSR-011],Partial response rate,"ALK-positive tumours; ALK inhibitor-naive, RP2D",42.9%
same,"Stable disease, patients","ALK-positive tumours; ALK inhibitor-naive, RP2D",57.1%
same,Objective response rate,"ALK-positive tumours; ALK pre-treated setting, RP2D",12.5%
same,Best overall response: Complete response,ALK-positive tumours; ALK inhibitor-naïve (n = 14),0 n (%)
same,Best overall response: Progressive disease,ALK-positive tumours; ALK inhibitor-naïve (n = 14),0 n (%)
same,Best overall response: Stable disease,ALK-positive tumours; ALK inhibitor-naïve (n = 14),8 (57.1) n (%)
same,Objective response: Complete response + partial response,ALK-positive tumours; ALK inhibitor-naïve (n = 14),6 (42.9) n (%)
same,Best overall response: Partial response,ALK-positive tumours; ALK inhibitor-naïve (n = 14),6 (42.9) n (%)
same,Best overall response: Complete response,ALK-positive tumours; All patients (N = 22),0 n (%)
same,Best overall response: Progressive disease,ALK-positive tumours; All patients (N = 22),1 (4.5) n (%)
same,Best overall response: Stable disease,ALK-positive tumours; All patients (N = 22),14 (63.6) n (%)
same,Objective response: Complete response + partial response,ALK-positive tumours; All patients (N = 22),7 (31.8) n (%)
same,Best overall response: Partial response,ALK-positive tumours; All patients (N = 22),7 (31.8) n (%)
same,Best overall response: Complete response,ALK-positive tumours; [7],0 n (%)
same,Best overall response: Progressive disease,ALK-positive tumours; [7],1 (12.5) n (%)
same,Best overall response: Stable disease,ALK-positive tumours; [7],6 (75.0) n (%)
same,Objective response: Complete response + partial response,ALK-positive tumours; [7],1 (12.5) n (%)
same,Best overall response: Partial response,ALK-positive tumours; [7],1 (12.5) n (%)
same,Complete response,ALK-positive tumours; [8],No ALK-positive patient had a complete response
same,"Stable disease, number of patients",ALK-positive tumours; [8],14
same,"Partial response, number of patients","ALK-positive tumours; ALK-positive patients (n = 22), 40 mg Q8h, six confirmed, one unconfirmed",seven
same,Response of a patient with neuroblastoma harbouring ALK mutation (R1275Q),ALK-positive tumours; one patient,did not respond
same,Partial response rate,ALK-positive tumours; [9],12.5%
same,"Stable disease, patients",ALK-positive tumours; [9],75.0%
same,Overall 24-h exposure,[1]; oral daily dosing of 60 mg/kg,"15,500 ng×h/mL"
same,Plasma concentration,"[1]; oral dose 60 mg/kg, at 8 h",0.698 µM
same,Highest concentration observed,[2]; 40-mg IR TID cohort,2599.50 nmol/L
same,Mean Ctrough,"[2]; 40-mg TID (Q8h), steady state day 29",0.35138 µM
same,Cmax at 696 h,"[2]; human, plasma, po, 40-mg TID (Q8h), steady state day 29",0.528 µM
same,half-life,"[2]; human, plasma, po, cycle 1/day 1, across cohorts",7 to 27 h
same,Vd/F,"[2]; human, plasma, po, cycle 1/day 1, across cohorts, read-out: Apparent volume of distribution",188 to 1620 L
same,Cmax,"[2]; human, plasma, cycle 2/day 1, daily oral 80–480 mg",0.447 to 3.33 µM
same,Tmax,"[2]; human, plasma, cycle 2/day 1, daily oral 80–480 mg, read-out: Median tmax",2 to 6 h
same,Increase in geometric mean AUC from 0 to 24 h,[2]; [10],42 fold
same,Increase in geometric mean Cmax,[2]; [10],41 fold
same,Increase in exposure for AUC from time 0 to the last measurable concentration,[2]; [11],2.9 fold
same,Increase in exposure for Cmax,[2]; [11],3.3 fold
same,Mean ΔQTcF,[3]; 120 mg QD (n = 1),19 ms
same,Upper bound of the two-sided 90% CI of mean ΔQTcF,[3]; 120 mg QD (n = 1),27 ms
same,Frequency of drug-related QTc prolongation,[3]; 40-mg TID (Q8h) RP2D,9.7%
same,Patients with ΔQTc of > 60 ms and QTc > 500 ms (grade 3 event),"[3]; 40-mg TID (Q8h), one in 27 patients",3.7%
same,Mean ΔQTcF,"[3]; 40-mg TID cohort (n = 27), 90% CI 9.75–12.00 ms",11 ms
same,ΔQTcF,"[3]; QD doses at 240 mg (n = 3), 320 mg (n = 3) and 480 mg (n = 4)",> 20 ms
same,"Slope of linear regression, plasma concentration versus ΔQTcF","[3]; all dose groups, 95% CI 0.01970–0.02747, P < 0.0001",0.02358
same,Mean ΔQTcF,"[3]; fractionated BID (Q12h) and TID (Q8h) regimens, cumulative daily doses of 60 and 120 mg, all four regimens",below 20 ms
same,Frequency of drug-related QTc prolongation,[3]; overall safety population,16.7%
same,IC50,calcium channel,> 10 µM
same,IC50,CYP3A4,23.3 µM
same,IC50,hERG [4],2.3 µM
same,IC50,hERG [5],0.172 µM
same,IC50,hNav1.5,7.6 µM
same,IC50,CYP2D6,32.9 µM
same,Reversibility of cardiovascular parameters,"[6]; oral 3, 10 and 15 mg/kg",returned to normal by the subsequent dose
same,PR interval,"[6]; oral doses of 3, 10 and 15 mg/kg",dose-dependent prolongation of the PR interval
same,Body temperature,"[6]; oral, at 15 mg/kg",mild and transient increase in body temperature
same,QRS duration,"[6]; oral, at 10 and 15 mg/kg",small and dose-dependent increase in QRS duration
same,Heart rate,"[6]; oral, at ≥ 3 mg/kg",Increased heart rate
same,QTc,"[6]; oral, at ≥ 3 mg/kg",prolonged QTc
same,Pulse pressure,"[6]; oral, at ≥ 10 mg/kg",decreased pulse pressure
